The subject of this experiment is P388 leukemia ip, CD2F1 mice, survival T/C. Put plainly: NCI In Vivo Anticancer Drug Screen. Data for tumor model P388 Leukemia (intraperitoneal) in CD2F1 (CDF1) mice. The conditions noted are these: endpoint: median survival time, higher = longer survival. The gist of the method:
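Mice carrying the transplanted tumor received test compound or vehicle. Survival was recorded in each group, and the value is the treated-group measurement divided by that of the vehicle-treated control group.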

[1] abbreviates: dose: 50.0 mg/kg/injection, schedule: Q01DX009 (ip), vehicle: suspension in saline.
Where [2] appears, read: dose: 100.0 mg/kg/injection, schedule: Q01DX009 (ip), vehicle: suspension in saline.
The mark [3] stands for this setting: dose: 50.0 mg/kg/injection, schedule: Q01DX009 (ip), vehicle: Klucel (hydroxypropylcellulose) (HPC).
Setting [4] is: dose: 100.0 mg/kg/injection, schedule: Q01DX009 (ip), vehicle: Klucel (hydroxypropylcellulose) (HPC).
Setting [5] is: dose: 200.0 mg/kg/injection, schedule: Q01DX009 (ip), vehicle: Klucel (hydroxypropylcellulose) (HPC).
The mark [6] stands for this setting: dose: 25.0 mg/kg/injection, schedule: Q01DX005 (ip), vehicle: Klucel (hydroxypropylcellulose) (HPC).
The mark [7] stands for this setting: dose: 50.0 mg/kg/injection, schedule: Q01DX005 (ip), vehicle: Klucel (hydroxypropylcellulose) (HPC).
Where [8] appears, read: dose: 25.0 mg/kg/injection, schedule: Q01DX009 (ip), vehicle: other.
The mark [9] stands for this setting: dose: 50.0 mg/kg/injection, schedule: Q01DX009 (ip), vehicle: saline.
The mark [10] stands for this setting: dose: 100.0 mg/kg/injection, schedule: Q01DX009 (ip), vehicle: saline.
The mark [11] stands for this setting: dose: 50.0 mg/kg/injection, schedule: Q01DX005 (ip), vehicle: saline with Tween-80.
Where [12] appears, read: dose: 100.0 mg/kg/injection, schedule: Q01DX005 (ip), vehicle: saline with Tween-80.
[13] abbreviates: dose: 100.0 mg/kg/injection, schedule: Q04DX003 (ip), vehicle: saline.
[14] abbreviates: dose: 200.0 mg/kg/injection, schedule: Q04DX003 (ip), vehicle: saline.

Where “and” joins values, the source holds several entries; their conditions need not be identical. Identical values can stand only once. Inconclusive results and toxic doses are left out.

As to `O=c1[nH]c(=O)n(C(c2ccccc2)c2ccccc2)cc1F`, the T/C (dose: 12.5 mg/kg/injection, schedule: Q01DX009 (ip), vehicle: suspension in saline) was 100 % of control; the T/C (dose: 25.0 mg/kg/injection, schedule: Q01DX009 (ip), vehicle: suspension in saline) is 89 % of control; the T/C under setting [1] was 99 % of control; the T/C (dose: 75.0 mg/kg/injection, schedule: Q01DX009 (ip), vehicle: suspension in saline) is 101 % of control; the T/C under setting [2] is 94 % of control; the T/C (dose: 150.0 mg/kg/injection, schedule: Q01DX009 (ip), vehicle: suspension in saline) was 90 % of control.
As to `C=CCCC1CN2CCc3cc(OC)c(OC)cc3C2CC1=O` (centres undefined), the T/C is 113 % of control under setting [3], 103 % of control under setting [4] and 105 % of control under setting [5].
Regarding `Cc1cccc(C(O)(c2cccc(C)c2)C2(O)CCN(C)CC2)c1`, the T/C by setting is: under setting [6], 98 % of control; under setting [7], 98 % of control; (dose: 100.0 mg/kg/injection, schedule: Q01DX005 (ip), vehicle: Klucel (hydroxypropylcellulose) (HPC)) 102 % of control.
`COc1ccc(NC(=O)Oc2ccc3c(C)cc(=O)oc3c2)c(OC)c1` (tested in a mixture with another compound): the T/C is 106 % of control and 117 % of control (dose: 60.0 mg/kg/injection, schedule: Q01DX005 (ip), vehicle: saline with Tween-80); 120 % of control and 121 % of control (dose: 120.0 mg/kg/injection, schedule: Q01DX005 (ip), vehicle: saline with Tween-80).
On to `COc1cccc2c1C(=O)c1c(O)c3c(c(O)c1C2=O)C[C@@](O)(C(O)CO)C[C@@H]3OC1CC(NC(=O)C(F)(F)F)C(O)C(C)O1` (some centres undefined), for which, under setting [8], the T/C is 151 % of control and 152 % of control.
In the case of `Cc1ccc(NC(=O)Oc2ccc(F)cc2)c([N+](=O)[O-])c1`, the T/C was 96 % of control (dose: 50.0 mg/kg/injection, schedule: Q01DX009 (ip), vehicle: saline with Tween-80); 95 % of control (dose: 100.0 mg/kg/injection, schedule: Q01DX009 (ip), vehicle: saline with Tween-80); 88 % of control (dose: 200.0 mg/kg/injection, schedule: Q01DX009 (ip), vehicle: saline with Tween-80).
For `O=C1CCN2CO[C@H](c3ccccc3)C[C@@H]2C1`, the T/C is, setting by setting: (dose: 12.5 mg/kg/injection, schedule: Q01DX005 (ip), vehicle: Klucel (hydroxypropylcellulose) (HPC)) 103 % of control; under setting [6], 102 % of control; under setting [7], 102 % of control.
Consider `C/C(=N\Nc1ccccc1)C1CC2C=C(C#N)C1N(Cc1ccccc1)C2` (centres undefined), for which the T/C reads like this: (dose: 8.75 mg/kg/injection, schedule: Q01DX005 (ip), vehicle: Klucel (hydroxypropylcellulose) (HPC)) 94 % of control; (dose: 17.5 mg/kg/injection, schedule: Q01DX005 (ip), vehicle: Klucel (hydroxypropylcellulose) (HPC)) 96 % of control; (dose: 35.0 mg/kg/injection, schedule: Q01DX005 (ip), vehicle: Klucel (hydroxypropylcellulose) (HPC)) 94 % of control.
As for `CCC[CH2][Sn]([CH2]CCC)([S]C(C)=O)[S]C(C)=O`, the T/C (dose: 12.5 mg/kg/injection, schedule: Q01DX001 (ip), vehicle: Klucel (hydroxypropylcellulose) (HPC)) is 113 % of control; the T/C (dose: 25.0 mg/kg/injection, schedule: Q01DX001 (ip), vehicle: Klucel (hydroxypropylcellulose) (HPC)) was 105 % of control; the T/C (dose: 50.0 mg/kg/injection, schedule: Q01DX001 (ip), vehicle: Klucel (hydroxypropylcellulose) (HPC)) is 114 % of control.
In the case of `CC(=O)c1ccc(NC(=O)C#N)cc1`, the T/C reads like this: (dose: 7.5 mg/kg/injection, schedule: Q01DX005 (ip), vehicle: saline with Tween-80) 104 % of control; (dose: 15.0 mg/kg/injection, schedule: Q01DX005 (ip), vehicle: saline with Tween-80) 110 % of control.
For the molecule `C=CCCC(OC(C)C)OC(C)C`, the T/C under setting [9] is 98 % of control; the T/C under setting [10] is 99 % of control; the T/C (dose: 200.0 mg/kg/injection, schedule: Q01DX009 (ip), vehicle: saline) is 108 % of control.
For `NC(=O)N/N=C1\CC2C=CC1/C=C\C=C\2` (centres undefined), the T/C is, setting by setting: (dose: 100.0 mg/kg/injection, schedule: Q01DX001 (ip), vehicle: saline with Tween-80) 100 % of control; (dose: 200.0 mg/kg/injection, schedule: Q01DX001 (ip), vehicle: saline with Tween-80) 106 % of control; (dose: 400.0 mg/kg/injection, schedule: Q01DX001 (ip), vehicle: saline with Tween-80) 106 % of control.
In the case of `C=CCNC(=S)N\N=C/C(/C=C/c1ccccc1)=N\NC(=S)NCC=C`, the T/C by setting is: (dose: 100.0 mg/kg/injection, schedule: Q04DX002 (ip), vehicle: Klucel (hydroxypropylcellulose) (HPC)) 103 % of control; (dose: 200.0 mg/kg/injection, schedule: Q04DX002 (ip), vehicle: Klucel (hydroxypropylcellulose) (HPC)) 91 % of control; (dose: 400.0 mg/kg/injection, schedule: Q04DX002 (ip), vehicle: Klucel (hydroxypropylcellulose) (HPC)) 91 % of control.
In the case of `COc1cc(Br)c2nsnc2c1`, the T/C runs as follows: under setting [11], 91 % of control; under setting [12], 91 % of control.
In the case of `C[CH2][Sn]([Br])([c]1ccccc1)[c]1ccccc1CN(C)C` (centres undefined), the T/C under setting [9] is 91 % of control and the T/C under setting [10] is 98 % of control.
`COC(=O)C1=C(C(=O)OC)C2CC3C4CC=C5CC(OC(C)=O)CCC5(C)C4CCC3(C)C2=C(OC(C)=O)C1` (centres undefined): the T/C is 90 % of control under setting [11] and 87 % of control under setting [12].
On to `CC(C)(CO)NC(=O)c1ccc(Br)cc1`, for which the T/C under setting [8] was 100 % of control; the T/C (dose: 50.0 mg/kg/injection, schedule: Q01DX009 (ip), vehicle: other) was 100 % of control; the T/C (dose: 100.0 mg/kg/injection, schedule: Q01DX009 (ip), vehicle: other) was 104 % of control; the T/C (dose: 200.0 mg/kg/injection, schedule: Q01DX009 (ip), vehicle: other) is 100 % of control; the T/C (dose: 400.0 mg/kg/injection, schedule: Q01DX009 (ip), vehicle: other) was 104 % of control.
As to `Cc1ccn2cc(CC(=O)O)nc2n1`, the T/C under setting [13] was 101 % of control; the T/C under setting [14] was 106 % of control; the T/C (dose: 400.0 mg/kg/injection, schedule: Q04DX003 (ip), vehicle: saline) is 105 % of control.
On to `CN(C)N=Nc1ccc(NC(N)=O)cc1`, for which, for the setting “dose: 100.0 mg/kg/injection, schedule: Q04DX003 (ip), vehicle: saline + Tween-80 + alcohol”, the T/C was 154 % of control.
On to `COc1cc2c(cc1OC)C(CO)C1c3cc4c(cc3CCN1C2)OCO4` (centres undefined), for which the T/C is, setting by setting: (dose: 50.0 mg/kg/injection, schedule: Q04DX003 (ip), vehicle: distilled water + Tween-80) 98 % of control; (dose: 100.0 mg/kg/injection, schedule: Q04DX003 (ip), vehicle: distilled water + Tween-80) 98 % of control; (dose: 200.0 mg/kg/injection, schedule: Q04DX003 (ip), vehicle: distilled water + Tween-80) 96 % of control; (dose: 400.0 mg/kg/injection, schedule: Q04DX003 (ip), vehicle: distilled water + Tween-80) 96 % of control.
For the molecule `Cc1c(NC(=S)Nc2c(C(C)C)cccc2C(C)C)c(=O)n(-c2ccccc2)n1C`, the T/C by setting is: under setting [3], 113 % of control; under setting [4], 106 % of control; under setting [5], 106 % of control.
As for `Cc1ccc(NC(=S)SCc2ccc(Cl)c(Cl)c2)cc1Cl`, the T/C was 112 % of control under setting [1]; 115 % of control under setting [2]; 116 % of control (dose: 200.0 mg/kg/injection, schedule: Q01DX009 (ip), vehicle: suspension in saline).
Regarding `CCOC(=O)c1cnc(N(C)C)nc1SC(=N)N`, the T/C runs as follows: (dose: 50.0 mg/kg/injection, schedule: Q04DX003 (ip), vehicle: saline) 100 % of control; under setting [13], 95 % of control; under setting [14], 104 % of control.
For the molecule `CCC1=Cc2cc([N+](=O)[O-])cc(OC)c2OC12SCCN2C` (centres undefined), the T/C runs as follows: (dose: 100.0 mg/kg/injection, schedule: Q04DX003 (ip), vehicle: saline with Tween-80) 100 % of control; (dose: 200.0 mg/kg/injection, schedule: Q04DX003 (ip), vehicle: saline with Tween-80) 103 % of control; (dose: 400.0 mg/kg/injection, schedule: Q04DX003 (ip), vehicle: saline with Tween-80) 103 % of control.

Values taken from PubChem BioAssay AID330 (DTP/NCI, 2004).
